Assay results as given in patent US6368788B1 (priority 1987, dated 2002).
Where two headings read alike, the source gives them in different places. Marks after values point to notes of the source that are not given here.

What was measured:
Staphylococci = test: Antibiotic sensitivity (doubling-dilution, MIC-2000) of patient isolates before and after Stage 1; type: cell-based
Method: Antibiotics were administered according to established dosages and routes: i.e., penicillin, Ampicillin, oxacillin, tetracycline, erythromycin, garamycin; administered by intramuscular route. Antibiotics were chosen according to the antibiotic sensitivity of the Staphylococci isolated from the respective patients. (Antibiotic sensitivity was determined by testing staphylococcal isolates for their sensitivity in an antibiotic sensitivity doubling-dilution assay with the aid of the semi-automatic MIC-2000 system, Dynatech, USA).
Staphylococci were isolated from patients before and after treatment in Stage 1 with L-Glu-L-Trp in order to determine whether a favorable reversal of T-lymphocyte immunodeficiency might lead to a change in the antibiotic sensitivity. The isolated bacterial colonies following Stage I were typed as follows: namely, in 16 patients S. aureus, in 34, S. epidermidis, in 2 saprophytic Staphylococci. In all cases the same types of Staphylococci were isolated following treatment with L-Glu-L-Trp, but in 4 patients the predominant Staphylococci in the isolates changed from S. aureus to S. epidermidis (n=2), and saprophytic Staphylococci (n=2).
Antibiotic sensitivity of Staphylococci were determined by doubling-dilution methods with the aid of the semiautomatic MIC-2000 system (Dynatech, USA).

[1] = system: peripheral blood lymphocytes; test: Protocol A3 Group 2: pyoderma in patients with SLE; type: in vivo, human
From the text: Group 2 constituted 22 patients with diagnosed forms of systemic lupus erythematosus (SLE): ie., 14 males and 8 females ranging in age from 21 to 62 years of age. The time since presentation with a diagnosis of SLE in this patient population ranged from several months to 18 years. All SLE patients in this trial had dermal manifestations of lupus erythematosus that included discoid disseminated forms of the disease. All patients had experienced chronic and recurrent episodes of pyoderma, and all had previously received conventional therapy, including use of antibiotics, delagil, and external corticosteroid ointments without effect. Patients in Group 2 were randomly divided into two treatment groups, the first consisting of 13 patients (9 men and 4 women) treated with L-Glu-L-Trp according to Therapy A, below, and the second consisting of 9 patients (5 men and 4 women) treated (as a control) according to Therapy B, ie., conventional therapeutic methods using anti-malarial preparations and vasoactive agents according to standard dosages and schedules.
In treatment Protocol A, all patients received L-Glu-L-Trp in combination with antibiotics. […]
Local antibiotics were administered as follows: Ampicillin (4), oxacillin (4), Levomycetin (1), tetracycline (9), Rondomycin (2), deoxycycline (8), cephalexin (2), and Rifampicin (1).

[2] = Complications of pregnancy (Protocol C); set-up: species or system human; conditions: in vivo
Method: L-Glu-L-Trp was administered to 34 pregnant women and 27 pregnant women receiving conventional treatment served as a control group. […] Signs of clinical improvement were resolution of weakness and dizziness, increased appetite, and the normalization of the immunological and hematological indices.

[3] = Drug allergies to antibiotics; set-up: species or system human; conditions: in vivo
Method: L-Glu-L-Trp was administered to 76 patients having clinical histones of allergies to antibiotics, during the period of administration of the antibiotic. A control group consisted of 43 patients with similar antibiotic drug allergies. L-Glu-L-Trp was administered im on a daily basis for 5-10 days at a dosage of 100 μg, or alternatively, intranasally at a dosage of 1 μg/kg over the same 5-10 day period. […] Allergic reactions were pronounced in the control group with signs of drug intolerance.

[4] = Acute osteomyelitis in adolescents (Protocol D); type: in vivo, human
Method: In 29 adolescents with osteomyelitis, 2 μg/kg L-Glu-L-Trp was administered im daily on each of 3-7 consecutive days, depending upon the severity of the infection. The control group consisted of 13 children who received conventional therapy with antibiotics.

[5] = system: antibody-producing cells in spleen; test: Antibody plaque forming cell response to sheep red blood cells (Jerne); type: in vivo, (CBAxC57B1/6) F1 mice; conditions: for PFC/10^6 splenocytes / PFC/Spleen / Spleen weight/Body weight / Splenocytes per Spleen: s-rbc immunized mice, day 5
E. coli = test: Survival after acute peritonitis with LD100 dose of E. coli; type: in vivo, mice
C. albicans = type: in vivo, mice; conditions: PDR
Herpes Zoster = conditions: on the average
[6] = with antibiotic therapy
[7] = Group 2 pyoderma in SLE, after L-Glu-L-Trp Therapy (n = 13)

## L-Glu-L-Trp
Staphylococci; conclusion of Stage 1
  Patients with decreased MIC of antibiotic for isolated bacteria: 78%
Staphylococci; in certain cases
  Increase in antibiotic sensitivity of isolates: > 100 fold
[1]; [7]
  B-Lymphocytes: 0.16 ± 0.01 ×10^9/L
  B-Lymphocytes % Normal Value: (52%)
  B-Lymphocytes (%): 6.8 ± 0.9%
  Basophils (%): 0.1 ± 0.1%
  Blast Transformation, Con-A: 64.1 ± 6.5 % of PBL
  Blast Transformation, PHA: 47.4 ± 3.5 % of PBL
  Eosinophils (%): 2.2 ± 0.1%
  Erythrocytes: 4.7 ± 0.1 10^12/L
  IgA: 2.85 ± 0.32 g/L
  IgA % Normal Value: (150%)
  IgG: 14.8 ± 1.27 g/L
  IgG % Normal Value: (137%)
  IgM: 0.92 ± 0.12 g/L
  IgM % Normal Value: (58%)
  Leukocytes: 5.74 ± 0.12 ×10^9/L
  Leukocytes % Normal Value: (86%)
  Lymphocytes: 2.17 ± 0.21 ×10^9/L
  Lymphocytes % Normal Value: (78%)
  Lymphocytes, %: 36.4 ± 2.3%
  Monocytes, %: 8.0 ± 0.7%
  Neutrophils: 3.5 ± 0.7 ×10^9/L
  Neutrophils, %: 55.3 ± 4.2%
  Neutrophils, % Normal Value: (106%)
  T-Lymphocytes: 1.13 ± 0.07 ×10^9/L
  T-Lymphocytes % Normal Value: (66%)
  T-Lymphocytes (%): 44.3 ± 2.7%
  T-helper: 0.87 ± 0.12 ×10^9/L
  T-helper % Normal Value: (66%)
  T-helper (%): 26.5 ± 2.7%
  T-suppressor: 0.53 ± 0.03 ×10^9/L
  T-suppressor % Normal Value: (136%)
  T-suppressor (%): 21.2 ± 3.7%
[1]; human, in vivo
  Clinical outcome: leads to a positive clinical effect and resolution of dermal rashes
[2]
  Clinical outcome: Decreased fetal hypoxia
[3]
  Patients in whom development of allergic reactions was prevented: 70%
[4]; 1 of 29
  Failure rate (wounds failed to heal): 3%
[4]; in vivo
  T-cell counts: nearly doubled
  Wounds closed with healing earlier than control group: 2 to 3 days
[4]; on the average
  Fevers resolved sooner: 1 to 2 days
[5]; 1 μg/kg
  Increase of frequency of PFC per 10^6 splenocytes: 2.8 fold
  Increase of number of PFC in spleen over saline control: 2.7 fold
  PFC/10^6 splenocytes: 69.2 ± 11.3
  PFC/Spleen: 11722 ± 2005
  Spleen weight/Body weight: 0.42 ± 0.01
  Splenocytes per Spleen: 168.6 ± 3.6 ×10^6
[5]; 10 μg/kg
  PFCs per spleen vs saline control: 1.8 fold
  PFC/10^6 splenocytes: 48.8 ± 9
  PFC/Spleen: 7854 ± 1631
  Spleen weight/Body weight: 0.43 ± 0.01
  Splenocytes per Spleen: 159 ± 8.5 ×10^6
[5]; 100 μg/kg
  PFCs per spleen vs saline control: 1.6 fold
  PFC/10^6 splenocytes: 41.7 ± 6
  PFC/Spleen: 6731 ± 1027
  Spleen weight/Body weight: 0.44 ± 0.02
  Splenocytes per Spleen: 162.6 ± 6 ×10^6
E. coli; 24 hours after injection, Glu-Trp dose 10 μg/kg (alone or + Ampicillin 1 MED)
  Percentage Survivors: 83.3* %
E. coli; 24 hours after injection, Glu-Trp dose 100 μg/kg (alone or + Ampicillin 1 MED)
  Percentage Survivors: 77.8*† %
E. coli; 24 hours after injection, Glu-Trp dose 1000 μg/kg (alone or + Ampicillin 1 MED)
  Percentage Survivors: 83.3*† %
E. coli; 48 hours after injection, Glu-Trp dose 10 μg/kg (alone or + Ampicillin 1 MED)
  Percentage Survivors: 11.1%
E. coli; 48 hours after injection, Glu-Trp dose 100 μg/kg (alone or + Ampicillin 1 MED)
  Percentage Survivors: 38.9* %
E. coli; 48 hours after injection, Glu-Trp dose 1000 μg/kg (alone or + Ampicillin 1 MED)
  Percentage Survivors: 44.4* %
E. coli; 72 hours after injection, Glu-Trp dose 10 μg/kg (alone or + Ampicillin 1 MED)
  Percentage Survivors: 11.1%
E. coli; 72 hours after injection, Glu-Trp dose 100 μg/kg (alone or + Ampicillin 1 MED)
  Percentage Survivors: 38.9* %
E. coli; 72 hours after injection, Glu-Trp dose 1000 μg/kg (alone or + Ampicillin 1 MED)
  Percentage Survivors: 44.4* %
C. albicans; 0.1 μg/kg ip
  Germ Tube (%): 35* %
C. albicans; 1 μg/kg ip
  Germ Tube (%): 34* %
C. albicans; 10 μg/kg ip
  Germ Tube (%): 35* %
C. albicans; 100 μg/kg ip
  Germ Tube (%): 26* %
C. albicans; 300 μg/kg ip
  Germ Tube (%): 37%
Herpes Zoster
  Healing earlier than in the control group: 40%
[6]
  Clinical outcome: accelerated healing of chronic and acute ear infections
